Results taken from PubChem BioAssay AID248 (DTP/NCI, 2004).
Toxic doses and inconclusive results are not listed. Cut-off read from the data, not from the text of the source: active = T/C of 150% or more; inactive = T/C below 125%.

System: L1210 leukemia ip in BDF1 mice, survival T/C
Test: NCI In Vivo Anticancer Drug Screen. Data for tumor model L1210 Leukemia (intraperitoneal) in B6D2F1 (BDF1) mice
Conditions: endpoint: mean survival time, higher = longer survival
How it was run: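 Ratio derived from survival: compound-dosed mice over vehicle-dosed mice, all bearing a transplantable tumor.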

[1] = dose: 100.0 mg/kg/injection, schedule: Q01DX001 (ip), vehicle: carboxymethylcellulose (CMC)
[2] = dose: 200.0 mg/kg/injection, schedule: Q01DX001 (ip), vehicle: carboxymethylcellulose (CMC)
[3] = dose: 400.0 mg/kg/injection, schedule: Q01DX001 (ip), vehicle: carboxymethylcellulose (CMC)
[4] = dose: 100.0 mg/kg/injection, schedule: Q04DX002 (ip), vehicle: Klucel (hydroxypropylcellulose) (HPC)
[5] = dose: 200.0 mg/kg/injection, schedule: Q04DX002 (ip), vehicle: Klucel (hydroxypropylcellulose) (HPC)
[6] = dose: 400.0 mg/kg/injection, schedule: Q04DX002 (ip), vehicle: Klucel (hydroxypropylcellulose) (HPC)
[7] = dose: 100.0 mg/kg/injection, schedule: Q01DX001 (ip), vehicle: saline with Tween-80
[8] = dose: 50.0 mg/kg/injection, schedule: Q01DX001 (ip), vehicle: saline
[9] = dose: 100.0 mg/kg/injection, schedule: Q01DX001 (ip), vehicle: saline
[10] = dose: 200.0 mg/kg/injection, schedule: Q01DX001 (ip), vehicle: saline
[11] = dose: 400.0 mg/kg/injection, schedule: Q01DX001 (ip), vehicle: saline
[12] = dose: 100.0 mg/kg/injection, schedule: Q01DX009 (ip), vehicle: saline with Tween-80
[13] = dose: 100.0 mg/kg/injection, schedule: Q04DX003 (ip), vehicle: saline with Tween-80
[14] = dose: 200.0 mg/kg/injection, schedule: Q01DX009 (ip), vehicle: saline with Tween-80
[15] = dose: 200.0 mg/kg/injection, schedule: Q04DX003 (ip), vehicle: saline with Tween-80
[16] = dose: 400.0 mg/kg/injection, schedule: Q01DX009 (ip), vehicle: saline with Tween-80
[17] = dose: 400.0 mg/kg/injection, schedule: Q04DX003 (ip), vehicle: saline with Tween-80

Measured: T/C

CCOC(=O)N1C=Cc2ccccc2C1C#N (centres undefined)
inactive: [1] 124 % of control | [2] 98 % of control | [3] 93 % of control

C1CCC2[N-]CC3CCCCC3[N-]CC3CCCCC3[N-]CC3CCCCC3[N-]CC2C1.[Cl][Fe]([Cl])([Cl])[Cl].[Fe+6] (centres undefined)
inactive: dose: 12.5 mg/kg/injection, schedule: Q04DX002 (ip), vehicle: Klucel (hydroxypropylcellulose) (HPC) 102 % of control | dose: 25.0 mg/kg/injection, schedule: Q04DX002 (ip), vehicle: Klucel (hydroxypropylcellulose) (HPC) 102 % of control | dose: 50.0 mg/kg/injection, schedule: Q04DX002 (ip), vehicle: Klucel (hydroxypropylcellulose) (HPC) 94 % of control

COC1OC(CBr)C(OC(=O)c2ccccc2)C(OC(=O)c2ccccc2)C1OC(=O)c1ccccc1 (centres undefined)
inactive: [4] 101 % of control | [5] 96 % of control | [6] 90 % of control

O=C1NCCc2c1sc1ccccc21
inactive: [1] 95 % of control | [3] 90 % of control

CCc1[nH]c(=O)nc2[nH]c3ccccc3c12
inactive: [4] 90 % of control | [5] 93 % of control | [6] 97 % of control

COc1ccccc1NC(=O)Nc1c(C)cccc1C
inactive: dose: 100.0 mg/kg/injection, schedule: Q01DX009 (ip), vehicle: gum acacia 97 % of control | dose: 100.0 mg/kg/injection, schedule: Q04DX003 (ip), vehicle: gum acacia 98 % of control | dose: 200.0 mg/kg/injection, schedule: Q01DX009 (ip), vehicle: gum acacia 88 % of control | dose: 200.0 mg/kg/injection, schedule: Q04DX003 (ip), vehicle: gum acacia 93 % of control | dose: 400.0 mg/kg/injection, schedule: Q01DX009 (ip), vehicle: gum acacia 90 % of control | dose: 400.0 mg/kg/injection, schedule: Q04DX003 (ip), vehicle: gum acacia 94 % of control

Oc1ccc(C2(CCl)OCCO2)cc1
inactive: dose: 25.0 mg/kg/injection, schedule: Q01DX001 (ip), vehicle: saline with Tween-80 98 % of control | dose: 50.0 mg/kg/injection, schedule: Q01DX001 (ip), vehicle: saline with Tween-80 104 % of control | [7] 107 % of control

CCCCCCCCCCCCCCCCCC[P+](CCCC)(CCCC)CCCC
inactive: dose: 0.75 mg/kg/injection, schedule: Q04DX002 (ip), vehicle: saline with Tween-80 110 % of control | dose: 1.5 mg/kg/injection, schedule: Q04DX002 (ip), vehicle: saline with Tween-80 90 % of control | dose: 3.0 mg/kg/injection, schedule: Q04DX002 (ip), vehicle: saline with Tween-80 100 % of control | dose: 3.12 mg/kg/injection, schedule: Q04DX002 (ip), vehicle: saline with Tween-80 87 % of control | dose: 6.25 mg/kg/injection, schedule: Q04DX002 (ip), vehicle: saline with Tween-80 94 % of control

CC(C1CCCC1)C1CCCC1
inactive: dose: 100.0 mg/kg/injection, schedule: Q04DX002 (ip), vehicle: saline with Tween-80 96 % of control | dose: 200.0 mg/kg/injection, schedule: Q04DX002 (ip), vehicle: saline with Tween-80 90 % of control | dose: 400.0 mg/kg/injection, schedule: Q04DX002 (ip), vehicle: saline with Tween-80 109 % of control

CCCCCCCCCCCCCCCCCC(CC)c1ccccc1 (centres undefined)
inactive: [7] 104 % of control | dose: 200.0 mg/kg/injection, schedule: Q01DX001 (ip), vehicle: saline with Tween-80 94 % of control | dose: 400.0 mg/kg/injection, schedule: Q01DX001 (ip), vehicle: saline with Tween-80 94 % of control

COc1ccc(/C=C2\N=C(c3ccccc3)OC2=O)cc1OC
inactive: [8] 105 % of control | [9] 109 % of control | dose: 100.0 mg/kg/injection, schedule: Q04DX003 (ip), vehicle: saline 96 % of control | [10] 105 % of control | dose: 200.0 mg/kg/injection, schedule: Q04DX003 (ip), vehicle: saline 100 % of control | [11] 100 % of control | dose: 400.0 mg/kg/injection, schedule: Q04DX003 (ip), vehicle: saline 96 % of control

Cc1ccc(Cl)cc1NS(=O)(=O)c1ccc(Br)cc1
inactive: [12] 95 % of control | [13] 88 % of control | [14] 90 % of control | [15] 94 % of control | [16] 90 % of control | [17] 94 % of control

Cc1ccc(NC(=O)NCc2ccco2)cc1
inactive: dose: 222.0 mg/kg/injection, schedule: Q01DX Z (ip), vehicle: methylcellulose (MC) 94 % of control | dose: 333.0 mg/kg/injection, schedule: Q01DX Z (ip), vehicle: methylcellulose (MC) 100 % of control | dose: 500.0 mg/kg/injection, schedule: Q01DX Z (ip), vehicle: methylcellulose (MC) 94 % of control

C=C(C)C12OC3(c4ccccc4)OC1C1C4OC4(CO)C(O)C4(O)C(=O)C(C)=CC4C1(O3)C(C)C2OC(=O)/C=C/C=C/c1ccccc1 (centres undefined)
inactive: dose: 25.0 micrograms/kg/injection, schedule: Q01DX009 (ip), vehicle: alcohol 97 % of control | dose: 50.0 micrograms/kg/injection, schedule: Q01DX009 (ip), vehicle: alcohol 105 % of control | dose: 100.0 micrograms/kg/injection, schedule: Q01DX009 (ip), vehicle: alcohol 92 % of control | dose: 200.0 micrograms/kg/injection, schedule: Q01DX009 (ip), vehicle: alcohol 92 % of control | dose: 400.0 micrograms/kg/injection, schedule: Q01DX009 (ip), vehicle: alcohol 103 % of control

CCCCOCN1C(=O)NC(c2ccccc2)(c2ccccc2)C1=O
inactive: dose: 50.0 mg/kg/injection, schedule: Q01DX009 (ip), vehicle: saline with Tween-80 108 % of control | [12] 94 % of control

CS(=O)(=O)OCCCCO
inactive: dose: 50.0 mg/kg/injection, schedule: Q01DX001 (ip), vehicle: carboxymethylcellulose (CMC) 88 % of control | [1] 93 % of control | [2] 93 % of control | [3] 90 % of control

C=CCC1CCCCC1
inactive: [1] 104 % of control | [2] 105 % of control | [3] 104 % of control

CCCCN1C(=O)C2CCC34C5C(=O)N(CCCC)C(=O)C5C5C=CC3(C2C1=O)C1C(=O)N(CCCC)C(=O)C1N54 (centres undefined)
inactive: dose: 50.0 mg/kg/injection, schedule: Q01DX009 (ip), vehicle: Klucel (hydroxypropylcellulose) (HPC) 99 % of control | dose: 100.0 mg/kg/injection, schedule: Q01DX009 (ip), vehicle: Klucel (hydroxypropylcellulose) (HPC) 99 % of control | dose: 200.0 mg/kg/injection, schedule: Q01DX009 (ip), vehicle: Klucel (hydroxypropylcellulose) (HPC) 97 % of control | dose: 400.0 mg/kg/injection, schedule: Q01DX009 (ip), vehicle: Klucel (hydroxypropylcellulose) (HPC) 97 % of control

CCSC(=O)N1c2ccc(OC)cc2C=CC1C#N (centres undefined)
inactive: [12] 119 % of control | [13] 101 % of control | [14] 124 % of control | [15] 97 % of control | [16] 119 % of control | [17] 111 % of control

CN(C)C(=S)Oc1ccc(C(C)(C)C)cc1
inactive: dose: 100.0 mg/kg/injection, schedule: Q01DX001 (ip), vehicle: Klucel (hydroxypropylcellulose) (HPC) 96 % of control | dose: 200.0 mg/kg/injection, schedule: Q01DX001 (ip), vehicle: Klucel (hydroxypropylcellulose) (HPC) 98 % of control | dose: 400.0 mg/kg/injection, schedule: Q01DX001 (ip), vehicle: Klucel (hydroxypropylcellulose) (HPC) 90 % of control

NC(=S)NN=C1CCCCCCCCCC1
inactive: [8] 101 % of control | [9] 101 % of control | [10] 97 % of control | [11] 106 % of control

CCCCCCNP(=O)(Oc1ccccc1)Oc1ccccc1
inactive: dose: 100.0 mg/kg/injection, schedule: Q04DX003 (ip), vehicle: Klucel (hydroxypropylcellulose) (HPC) 97 % of control | dose: 200.0 mg/kg/injection, schedule: Q04DX003 (ip), vehicle: Klucel (hydroxypropylcellulose) (HPC) 97 % of control | dose: 400.0 mg/kg/injection, schedule: Q04DX003 (ip), vehicle: Klucel (hydroxypropylcellulose) (HPC) 105 % of control
